In US20230348444A1, “NOVEL COMPOUNDS FOR USE IN THE TREATMENT OF DISEASES ASSOCIATED WITH ANGIOTENSIN II” (Vicore Pharma AB, priority 2020, published 2023):
Like-named read-outs stand apart in the source and are kept apart here.

Legend:
Assay type in all cases: in vitro ADME
CYP1A = molecular target: T1, CYP1A (Homo sapiens, UniProt P05177); test: CYP inhibition in human liver microsomes (Eurofins protocol ITEMG232); conditions: probe phenacetin, substrate phenacetin, read-out: CYP1A Inh %
T1 construct: using isoform-specific substrates incubated with human liver microsomes; tissue Eurofins ITEMG232; host or cells: human liver microsomes
T1 sequence (P05177 2-516 limits assumed): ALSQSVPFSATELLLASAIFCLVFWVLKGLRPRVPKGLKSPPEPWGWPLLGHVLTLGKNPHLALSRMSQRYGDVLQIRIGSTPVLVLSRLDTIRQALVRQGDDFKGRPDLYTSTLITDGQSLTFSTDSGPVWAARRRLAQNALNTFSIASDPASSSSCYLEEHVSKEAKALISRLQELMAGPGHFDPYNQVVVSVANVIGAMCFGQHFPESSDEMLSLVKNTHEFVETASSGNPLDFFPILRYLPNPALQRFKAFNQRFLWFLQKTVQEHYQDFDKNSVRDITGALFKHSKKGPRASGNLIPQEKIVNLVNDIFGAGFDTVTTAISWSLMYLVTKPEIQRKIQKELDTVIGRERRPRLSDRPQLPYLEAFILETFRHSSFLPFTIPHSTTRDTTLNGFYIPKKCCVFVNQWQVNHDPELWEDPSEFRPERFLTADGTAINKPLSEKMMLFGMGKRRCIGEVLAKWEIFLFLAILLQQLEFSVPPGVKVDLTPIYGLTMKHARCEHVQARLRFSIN
Description: (§1) The following substrates were used; CYP1A phenacetin, CYP2B6 bupropion, CYP2C8 paclitaxel and amodiaquine, CYP2C9 diclofenac, CYP2C19 omeprazole, CYP2D6 dextromethorphan, CYP3A midazolam and testosterone.
(§2) At the end of the incubation, the formation of metabolite was monitored by HPLC-MS/MS as the peak area response.

CYP2B6 = molecular target: T2, CYP2B6 (Homo sapiens, UniProt P20813); test: as above; conditions: probe bupropion, substrate bupropion, read-out: CYP2B6 Inh %
T2 construct: using isoform-specific substrates incubated with human liver microsomes; tissue Eurofins ITEMG232; host or cells: human liver microsomes
T2 sequence (P20813 1-491): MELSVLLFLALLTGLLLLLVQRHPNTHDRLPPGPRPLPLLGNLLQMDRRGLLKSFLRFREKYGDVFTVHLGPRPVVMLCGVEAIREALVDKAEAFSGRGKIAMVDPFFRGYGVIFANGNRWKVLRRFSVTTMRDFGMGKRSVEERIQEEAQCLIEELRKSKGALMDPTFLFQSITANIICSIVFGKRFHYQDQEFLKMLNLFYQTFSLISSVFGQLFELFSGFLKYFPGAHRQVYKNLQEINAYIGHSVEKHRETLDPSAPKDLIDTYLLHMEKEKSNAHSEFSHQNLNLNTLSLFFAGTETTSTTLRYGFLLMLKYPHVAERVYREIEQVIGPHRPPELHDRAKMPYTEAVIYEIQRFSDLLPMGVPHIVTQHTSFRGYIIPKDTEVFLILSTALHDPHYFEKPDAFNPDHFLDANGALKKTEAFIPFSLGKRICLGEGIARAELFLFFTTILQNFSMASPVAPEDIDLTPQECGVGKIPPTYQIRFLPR
Description: as §1, §2

CYP2C19 = molecular target: T3, CYP2C19 (Homo sapiens, UniProt P33261); test: as above; conditions: probe omeprazole, substrate omeprazole, read-out: CYP2C19 Inh %
T3 construct: using isoform-specific substrates incubated with human liver microsomes; tissue Eurofins ITEMG232; host or cells: human liver microsomes
T3 sequence (P33261 whole entry, canonical isoform): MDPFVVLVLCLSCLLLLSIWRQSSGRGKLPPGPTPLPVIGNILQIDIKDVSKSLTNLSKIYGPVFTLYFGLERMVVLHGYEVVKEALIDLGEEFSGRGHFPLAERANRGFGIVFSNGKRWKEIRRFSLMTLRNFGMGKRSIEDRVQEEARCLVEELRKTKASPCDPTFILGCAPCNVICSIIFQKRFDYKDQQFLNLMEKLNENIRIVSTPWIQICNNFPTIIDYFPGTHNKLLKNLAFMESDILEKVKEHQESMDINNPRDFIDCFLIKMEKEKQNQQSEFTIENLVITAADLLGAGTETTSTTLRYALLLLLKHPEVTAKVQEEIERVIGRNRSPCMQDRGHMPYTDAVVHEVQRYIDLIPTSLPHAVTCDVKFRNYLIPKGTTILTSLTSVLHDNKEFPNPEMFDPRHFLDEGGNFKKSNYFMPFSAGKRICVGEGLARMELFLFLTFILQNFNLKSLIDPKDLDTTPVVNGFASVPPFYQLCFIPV
Description: as §1, §2

CYP2C8 = molecular target: T4, CYP2C8 (Homo sapiens, UniProt P10632); test: as above; conditions: probe paclitaxel and amodiaquine, substrates paclitaxel and amodiaquine, read-out: CYP2C8 Inh %
T4 construct: using isoform-specific substrates incubated with human liver microsomes; tissue Eurofins ITEMG232; host or cells: human liver microsomes
T4 sequence (P10632 1-490): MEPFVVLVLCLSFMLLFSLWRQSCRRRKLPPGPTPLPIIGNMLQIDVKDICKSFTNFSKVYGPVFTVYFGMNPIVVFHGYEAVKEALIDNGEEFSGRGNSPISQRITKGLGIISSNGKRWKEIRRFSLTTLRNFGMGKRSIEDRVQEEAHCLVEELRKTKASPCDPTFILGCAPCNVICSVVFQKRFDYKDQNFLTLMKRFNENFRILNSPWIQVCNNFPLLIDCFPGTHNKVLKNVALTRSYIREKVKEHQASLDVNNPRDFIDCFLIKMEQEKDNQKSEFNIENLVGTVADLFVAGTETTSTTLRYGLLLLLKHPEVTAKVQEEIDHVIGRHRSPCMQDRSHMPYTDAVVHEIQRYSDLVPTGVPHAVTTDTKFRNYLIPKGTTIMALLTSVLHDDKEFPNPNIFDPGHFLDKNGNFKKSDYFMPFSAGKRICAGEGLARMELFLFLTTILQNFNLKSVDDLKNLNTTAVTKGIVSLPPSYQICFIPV
Description: as §1, §2

CYP2D6 = molecular target: T5, CYP2D6 (Homo sapiens, UniProt P10635); test: as above; conditions: probe dextromethorphan, substrate dextromethorphan, read-out: CYP2D6 Inh %
T5 construct: tissue Eurofins ITEMG232; host or cells: human liver microsomes
T5 sequence (P10635 whole entry): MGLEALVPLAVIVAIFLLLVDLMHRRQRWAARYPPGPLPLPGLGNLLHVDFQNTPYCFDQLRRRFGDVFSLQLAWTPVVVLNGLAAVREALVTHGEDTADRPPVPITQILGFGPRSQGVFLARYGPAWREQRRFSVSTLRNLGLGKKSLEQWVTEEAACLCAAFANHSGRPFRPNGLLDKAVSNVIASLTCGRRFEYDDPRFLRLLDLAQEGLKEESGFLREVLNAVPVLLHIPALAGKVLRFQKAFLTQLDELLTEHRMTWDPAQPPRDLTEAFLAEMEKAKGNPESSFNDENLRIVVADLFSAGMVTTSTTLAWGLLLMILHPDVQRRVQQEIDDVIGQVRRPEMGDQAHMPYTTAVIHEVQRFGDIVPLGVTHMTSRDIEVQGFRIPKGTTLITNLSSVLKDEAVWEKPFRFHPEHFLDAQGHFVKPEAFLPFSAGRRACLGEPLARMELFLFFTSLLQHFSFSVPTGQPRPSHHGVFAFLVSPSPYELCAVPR
Description: as §1, §2

CYP3A4&5 = test: CYP inhibition in human liver microsomes (Eurofins protocol ITEMG232), testosterone substrate; conditions: probe testosterone, read-out: CYP3A4&5 testosterone Inh %
Description: as §1, §2

CYP2C9 = CYP2C9 (Homo sapiens, UniProt P11712); test: CYP inhibition in human liver microsomes (Eurofins protocol ITEMG232); design: using isoform-specific substrates incubated with human liver microsomes; tissue Eurofins ITEMG232; host or cells: human liver microsomes; conditions: probe diclofenac, substrate diclofenac, read-out: CYP2C9 Inh %
CYP2C9, sequence (P11712 whole entry, canonical isoform): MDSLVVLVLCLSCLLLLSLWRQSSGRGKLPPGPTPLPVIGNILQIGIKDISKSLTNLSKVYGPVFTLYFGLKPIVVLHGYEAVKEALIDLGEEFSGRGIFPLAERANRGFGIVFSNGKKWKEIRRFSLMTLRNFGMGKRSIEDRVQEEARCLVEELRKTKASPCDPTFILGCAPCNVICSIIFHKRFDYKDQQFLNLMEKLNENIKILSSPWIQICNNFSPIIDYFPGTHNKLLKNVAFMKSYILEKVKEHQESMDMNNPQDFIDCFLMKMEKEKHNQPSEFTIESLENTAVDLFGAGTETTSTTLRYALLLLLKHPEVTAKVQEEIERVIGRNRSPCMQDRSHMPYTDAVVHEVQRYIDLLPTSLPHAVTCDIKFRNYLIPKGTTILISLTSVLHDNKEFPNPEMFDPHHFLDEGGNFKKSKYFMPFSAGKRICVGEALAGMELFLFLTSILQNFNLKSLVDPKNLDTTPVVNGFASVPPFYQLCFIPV
Description: as §1, §2

CYP3A4 = CYP3A4 (Homo sapiens, UniProt P08684); test: CYP inhibition in human liver microsomes (Eurofins protocol ITEMG232), midazolam substrate; design: using isoform-specific substrates incubated with human liver microsomes; tissue Eurofins ITEMG232; host or cells: human liver microsomes; conditions: probe midazolam, read-out: CYP3A4 midazolam Inh %
CYP3A4, sequence (P08684 whole entry, canonical isoform): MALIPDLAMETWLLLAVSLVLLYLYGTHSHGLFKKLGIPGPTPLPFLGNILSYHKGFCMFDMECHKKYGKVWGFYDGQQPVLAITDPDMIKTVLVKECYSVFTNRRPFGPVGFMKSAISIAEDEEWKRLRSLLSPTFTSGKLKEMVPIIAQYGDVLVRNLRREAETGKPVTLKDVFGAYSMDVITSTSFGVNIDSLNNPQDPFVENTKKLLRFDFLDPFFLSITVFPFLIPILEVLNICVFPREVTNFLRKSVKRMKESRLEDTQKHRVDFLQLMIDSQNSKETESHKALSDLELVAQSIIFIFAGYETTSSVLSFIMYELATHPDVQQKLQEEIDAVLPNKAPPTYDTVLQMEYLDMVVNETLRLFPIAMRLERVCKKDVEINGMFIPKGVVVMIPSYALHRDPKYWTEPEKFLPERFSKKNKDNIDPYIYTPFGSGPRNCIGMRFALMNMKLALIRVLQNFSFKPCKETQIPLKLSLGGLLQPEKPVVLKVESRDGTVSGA
Description: as §1, §2

[1] = Metabolic stability in pooled human liver microsomes with or without NADPH; conditions: human, pooled human liver microsomes, pooled human liver microsomes 0.5 mg/mL in PBS, 1 uM test compound, 37° C.
Description: Pooled human liver microsomes in PBS at a concentration of 0.5 mg/mL was incubated with or without 1 mM NADPH for 70 min at 37° C. Test compound was added after 10 minutes to a final concentration of 1 uM. Samples were withdrawn at 0, 5, 15 and 60 minutes and added to test tubes containing acetonitrile, to stop the reaction, and with terfenadine, used as internal standard. After centrifugation at 10000×g for 5 minutes the supernatant was diluted 1:1 with 1% formic acid. Samples were separated on a reverse phase column and detected by triple quadrupole MSMS (Agilant model 6540). The concentration of the parent compound at the different time points was measured with an external standard curve using terfenadine as internal standard and the initial metabolic rate in the presence or absence of NADPH calculated.

[2] = with 1 mM NADPH, read-out: T1/2, +NaDPH
[3] = without NADPH, read-out: T1/2, no NaDPH

| inhibition at 10 µM (CYP1A) | inhibition at 10 µM (CYP2B6) | inhibition at 10 µM (CYP2C19) | inhibition at 10 µM (CYP2C8) | inhibition at 10 µM (CYP2D6) | inhibition at 10 µM (CYP3A4&5) | inhibition at 10 µM (CYP2C9) | inhibition at 10 µM (CYP3A4) | half-life at 1 uM [1, 2] | half-life at 1 uM [1, 3] | SMILES |
| --- | --- | --- | --- | --- | --- | --- | --- | --- | --- | --- |
| 29.9% | 33.8% | 53.1% | 78.6% | 73.4% | 3.7% | 36.8% | -20.6% |  |  | CC(C)Cc1cc(-c2ccc(Cn3ccnc3C(C)(C)C)c(F)c2)c(S(=O)(=O)NC(=O)OCCO)s1 [Example 17, 2-Hydroxyethyl (3-(4-((2-(tert-butyl)-1H-imidazol-1-yl)methyl)-3-fluorophenyl)-5-isobutylthiophen-2-yl)sulfonylcarbamate] |
| 19% | 41% | 55% | 80% | 22% | 21% | 70% | -15% |  |  | CCCCOC(=O)NS(=O)(=O)c1sc(CC(C)C)cc1-c1ccc(Cn2ccnc2C)c(F)c1 [Example 2, Butyl (3-(3-fluoro-4-((2-methyl-1H-imidazol-1-yl)methyl)phenyl)-5-isobutylthiophen-2-yl)sulfonylcarbamate trifluoroacetic acid] |
| 58.7% | 16.6% | 13.8% | 44.2% | 16.3% | 8% | 51.4% | -48% | > 60 min | > 60 min | COC(=O)NS(=O)(=O)c1sc(CC(C)C)cc1-c1ccc(Cn2ccnc2C)c(F)c1 [Example 21, Methyl (3-(3-fluoro-4-((2-methyl-1H-imidazol-1-yl)methyl)phenyl)-5-isobutyl-thio-phen-2-yl)sulfonylcarbamate] |
| -15.3% | 1.6% | 45.9% | 53.9% | 18.9% | 23.8% | 23.3% | 51.7% | 29 min | 44 min | Cc1nccn1Cc1ccc(-c2cc(CC(C)C)sc2S(=O)(=O)NC(=O)C(C)(C)C)cc1F [Example 22, N-((3-(3-Fluoro-4-((2-methyl-1H-imidazol-1-yl)methyl)phenyl)-5-isobutylthiophen-2-yl)sulfonyl)pivalamide] |
|  |  |  |  |  |  |  |  | > 60 min | > 60 min | CCc1nccn1Cc1ccc(-c2cc(CC(C)C)sc2S(=O)(=O)NC(=O)OCCO)cc1F [Example 24, 2-Hydroxyethyl (3-(4-((2-ethyl-1H-imidazol-1-yl)methyl)-3-fluorophenyl)-5-isobutyl-thiophen-2-yl)sulfonylcarbamate] |
| 16.7% | 16.8% | 51.2% | 74.7% | 5.8% | 12.5% | 47% | -14.1% |  |  | CC(C)Cc1cc(-c2ccc(Cn3ccnc3C(C)(C)C)c(F)c2)c(S(=O)(=O)NC(=O)OCC(C)(C)O)s1 [Example 23, 2-Hydroxy-2-methylpropyl (3-(4-((2-(tert-butyl)-1H-imidazol-1-yl)methyl)-3-fluoro-Phenyl)-5-isobutylthiophen-2-yl)sulfonylcarbamate] |
| 46% | 32.6% | 45.6% | 90.5% | 22.3% | -4.8% | 57.9% | -56.9% |  |  | COC(=O)NS(=O)(=O)c1sc(CC(C)C)cc1-c1ccc(Cn2ccnc2C(C)(C)C)c(F)c1 [Example 20, Methyl (3-(4-((2-(tert-butyl)-1H-imidazol-1-yl)methyl)-3-fluorophenyl)-5-isobutylthiophen-2-yl)sulfonylcarbamate] |
| 23.5% | 20% | 0.5% | 21.9% | 17.1% | 26.6% | 50.4% | -28.7% | > 60 min | > 60 min | CCc1nccn1Cc1ccc(-c2cc(CC(C)C)sc2S(=O)(=O)NC(=O)OC)cc1F [Example 25, Methyl (3-(4-((2-ethyl-1H-imidazol-1-yl)methyl)-3-fluorophenyl)-5-isobutylthiophen-2-yl)sulfonylcarbamate] |

| SMILES | inhibition at 10 µM (CYP1A) | inhibition at 10 µM (CYP2B6) | inhibition at 10 µM (CYP2C19) | inhibition at 10 µM (CYP2C8) | inhibition at 10 µM (CYP2D6) | inhibition at 10 µM (CYP3A4&5) | inhibition at 10 µM (CYP2C9) | inhibition at 10 µM (CYP3A4) | half-life at 1 uM [1, 2] | half-life at 1 uM [1, 3] |
| --- | --- | --- | --- | --- | --- | --- | --- | --- | --- | --- |
| CCc1nccn1Cc1ccc(-c2cc(CC(C)C)sc2S(=O)(=O)NC(=O)OCCC(F)(F)F)cc1F.O=C(O)C(F)(F)F [Example 5, 3,3,3-Trifluoropropyl (3-(4-((2-ethyl-1H-imidazol-1-yl)methyl)-3-fluorophenyl)-5-iso-butyl-thiophen-2-yl)sulfonylcarbamate trifluoroacetic acid] | 35% | 37% | 63% | 64% | 49% | 5% | 71% | -24% | 18 min | 55 min |
| Cc1nccn1Cc1ccc(-c2cc(CC(C)C)sc2S(=O)(=O)NC(=O)OCCO)cc1F.O=C(O)C(F)(F)F [Example 4, 2-Hydroxyethyl (3-(3-fluoro-4-((2-methyl-1H-imidazol-1-yl)methyl)phenyl)-5-isobutyl-thiophen-2-yl)sulfonylcarbamate trifluoroacetic acid] | 27% | 55% | 31% | 54% | 54% | 22% | 58% | -66% | > 60 min | > 60 min |
